IC50 and inhibition data for 35 compounds are collected here from ChEMBL document CHEMBL5154691, “Discovery of novel verinurad analogs as dual inhibitors of URAT1 and GLUT9 with improved Druggability for the treatment of hyperuricemia” (Eur J Med Chem, 2022).

The structures appear in SMILES notation.

In one experiment the target is T1, Solute carrier family 22 member 6 (Homo sapiens, UniProt Q4U2R8).
T1 sequence (Q4U2R8 whole entry): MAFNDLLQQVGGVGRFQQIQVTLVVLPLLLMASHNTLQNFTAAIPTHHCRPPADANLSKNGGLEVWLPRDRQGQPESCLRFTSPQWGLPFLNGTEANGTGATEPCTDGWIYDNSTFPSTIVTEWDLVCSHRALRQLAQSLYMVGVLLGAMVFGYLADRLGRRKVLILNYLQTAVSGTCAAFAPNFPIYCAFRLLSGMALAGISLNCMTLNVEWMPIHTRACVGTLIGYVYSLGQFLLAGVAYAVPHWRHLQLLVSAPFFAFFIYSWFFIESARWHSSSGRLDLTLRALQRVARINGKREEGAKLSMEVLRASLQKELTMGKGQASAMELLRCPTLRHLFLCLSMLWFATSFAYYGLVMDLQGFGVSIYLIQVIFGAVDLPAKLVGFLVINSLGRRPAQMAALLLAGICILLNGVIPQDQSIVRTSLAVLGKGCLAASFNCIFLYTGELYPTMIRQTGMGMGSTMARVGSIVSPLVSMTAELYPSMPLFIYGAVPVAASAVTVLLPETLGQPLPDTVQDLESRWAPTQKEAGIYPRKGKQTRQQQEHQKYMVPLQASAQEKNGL
The experiment can be described thus: Inhibition of OAT1 (unknown origin) expressed in HEK293 cells assessed as inhibition of 6-CFL uptake preincubated for 30 mins followed by incubation with 6-CFL and measured after 15 mins by fluorescence based analysis. The format is toxicity, cell-based.
`N#Cc1ccc(Oc2cnccc2SCCCC(=O)O)c2ccccc12`: the IC50 (commonly the concentration that gives 50% inhibition) is 41.3 µM.
Still for that read-out and setting: under `COc1cc(C(=O)O)ccc1CSc1ccncc1N(C)c1ccc(C#N)c2ccccc12` stands 25.5 µM.

The next experiment deals with T2, Solute carrier family 22 member 12 (Homo sapiens, UniProt Q96S37).
T2 sequence (Q96S37 whole entry): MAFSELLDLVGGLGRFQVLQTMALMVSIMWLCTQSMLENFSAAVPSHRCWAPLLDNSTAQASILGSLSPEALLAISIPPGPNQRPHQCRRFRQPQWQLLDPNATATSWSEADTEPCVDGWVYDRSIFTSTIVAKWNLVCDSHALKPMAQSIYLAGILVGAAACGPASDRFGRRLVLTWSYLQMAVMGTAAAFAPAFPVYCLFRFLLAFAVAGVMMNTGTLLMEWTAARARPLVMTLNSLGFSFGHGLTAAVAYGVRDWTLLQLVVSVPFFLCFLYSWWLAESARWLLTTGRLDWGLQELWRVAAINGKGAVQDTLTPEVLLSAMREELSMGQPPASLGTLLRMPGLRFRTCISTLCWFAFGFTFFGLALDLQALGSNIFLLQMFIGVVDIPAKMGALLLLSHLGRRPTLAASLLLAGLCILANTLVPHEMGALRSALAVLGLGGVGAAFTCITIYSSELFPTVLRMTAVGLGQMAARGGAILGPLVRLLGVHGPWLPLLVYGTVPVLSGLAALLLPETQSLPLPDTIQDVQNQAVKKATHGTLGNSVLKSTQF
The experiment can be described thus: Inhibition of URAT1 (unknown origin)-mediated 14C-uric acid uptake expressed in HEK293 cells using 14C-uric acid as substrate preincubated for 30 mins followed by substrate addition and measured after 15 mins by liquid scintillation counting analysis. The format is cell-based.
In the case of `CN(c1cnccc1SCc1ccc(C(=O)O)cc1)c1ccc(C#N)c2ccccc12`, the midpoint of inhibition, the IC50, lay at 6.25 µM.
Consider `N#Cc1ccc(Nc2cnccc2SCCCC(=O)O)c2ccccc12`, for which 2.78 µM corresponded to half-maximal inhibition (IC50).
Still for that read-out and setting: under `N#Cc1ccc(Oc2cnccc2SCCCCCC(=O)O)c2ccccc12` stands 4.74 µM; under `CN(c1cnccc1SCCCCCCC(=O)O)c1ccc(C#N)c2ccccc12`, 4.64 µM; under `N#Cc1ccc(Oc2cnccc2SCCCCCCC(=O)O)c2ccccc12`, 3.78 µM.
On the same count and under the same terms, the result for `CN(c1cnccc1SCCCCC(=O)O)c1ccc(C#N)c2ccccc12` reads 3.58 µM; that for `N#Cc1ccc(Nc2cnccc2SCc2ccc(C(=O)O)cc2)c2ccccc12`, 2.55 µM; that for `N#Cc1ccc(Oc2cnccc2SCc2ccc(-c3ccccc3C(=O)O)cc2)c2ccccc12`, 15.1 µM.
Same read-out and setting: under `N#Cc1ccc(Nc2cnccc2Sc2ccc(Br)cc2CC(=O)O)c2ccccc12` stands 4.12 µM; under `N#Cc1ccc(Nc2cnccc2SCCCCCCC(=O)O)c2ccccc12`, 5.75 µM.
The compound `N#Cc1ccc(Oc2cnccc2Sc2cccc([N+](=O)[O-])c2CC(=O)O)c2ccccc12` yielded a concentration for half-maximal inhibition (IC50) of 10.5 µM.
Same read-out and setting: under `N#Cc1ccc(Nc2cnccc2SCCCCCC(=O)O)c2ccccc12` stands 4.24 µM; under `CN(c1cnccc1SC(C)(C)C(=O)O)c1ccc(C#N)c2ccccc12`, 5.36 µM.
The same measure, in the same setting: the result for `CN(c1cnccc1SCCCCCC(=O)O)c1ccc(C#N)c2ccccc12` reads 3.76 µM; that for `N#Cc1ccc(Oc2cnccc2SCc2ccc(C(=O)O)cc2)c2ccccc12`, 10.2 µM; that for `CN(c1cnccc1SCCCC(=O)O)c1ccc(C#N)c2ccccc12`, 2.58 µM.
Same read-out and setting: the result for `CN(c1cnccc1SCc1ccccc1C(=O)O)c1ccc(C#N)c2ccccc12` reads 4.44 µM; that for `N#Cc1ccc(Oc2cnccc2SCc2ccccc2C(=O)O)c2ccccc12`, 6.86 µM; that for `N#Cc1ccc(Oc2cnccc2SCCCC(=O)O)c2ccccc12`, 1.23 µM.
In turn, `COc1cc(C(=O)O)ccc1CSc1ccncc1Nc1ccc(C#N)c2ccccc12` displayed a 50% inhibitory concentration (IC50) of 1.66 µM.
In turn, `COc1cc(C(=O)O)ccc1CSc1ccncc1Oc1ccc(C#N)c2ccccc12` returned a half-maximal inhibitory concentration (IC50) of 16.4 µM.
Take `N#Cc1ccc(Oc2cnccc2SCC(=O)O)c2ccccc12`: the half-maximal inhibitory concentration (IC50) was found to be 6.97 µM.
The same measure, in the same setting: the result for `N#Cc1ccc(Oc2cnccc2Sc2ccc(Br)cc2CC(=O)O)c2ccccc12` reads 8.05 µM; that for `COc1ccc(Sc2ccncc2Oc2ccc(C#N)c3ccccc23)c(CC(=O)O)c1`, 14.2 µM.
On the same count and under the same terms, the result for `N#Cc1ccc(Nc2cnccc2SCCCCC(=O)O)c2ccccc12` reads 2.28 µM; that for `N#Cc1ccc(Oc2cnccc2SCc2cccc(C(=O)O)c2)c2ccccc12`, 6.58 µM.
On the same count and under the same terms, under `COc1ccc(Sc2ccncc2Nc2ccc(C#N)c3ccccc23)c(CC(=O)O)c1` stands 4.25 µM; under `CN(c1cnccc1SCc1ccc(-c2ccccc2C(=O)O)cc1)c1ccc(C#N)c2ccccc12`, 4.57 µM.
As for `CC(C)(Sc1ccncc1Oc1ccc(C#N)c2ccccc12)C(=O)O`, inhibition was half-maximal at 5.21 µM (IC50).
On the same count and under the same terms, the result for `N#Cc1ccc(Nc2cnccc2Sc2cccc([N+](=O)[O-])c2CC(=O)O)c2ccccc12` reads 3.44 µM; that for `CN(c1cnccc1SCc1cccc(C(=O)O)c1)c1ccc(C#N)c2ccccc12`, 3.57 µM; that for `COc1cc(C(=O)O)ccc1CSc1ccncc1N(C)c1ccc(C#N)c2ccccc12`, 0.46 µM.
The same measure, in the same setting: under `N#Cc1ccc(Nc2cnccc2SCc2cccc(C(=O)O)c2)c2ccccc12` stands 1.96 µM; under `N#Cc1ccc(Nc2cnccc2SCc2ccc(-c3ccccc3C(=O)O)cc2)c2ccccc12`, 4.68 µM.
Same read-out and setting: under `N#Cc1ccc(Oc2cnccc2SCCCCC(=O)O)c2ccccc12` stands 4.22 µM.

Another experiment concerns the target T3, Solute carrier family 2, facilitated glucose transporter member 9 (Homo sapiens) (UniProt Q9NRM0).
T3 sequence (whole entry): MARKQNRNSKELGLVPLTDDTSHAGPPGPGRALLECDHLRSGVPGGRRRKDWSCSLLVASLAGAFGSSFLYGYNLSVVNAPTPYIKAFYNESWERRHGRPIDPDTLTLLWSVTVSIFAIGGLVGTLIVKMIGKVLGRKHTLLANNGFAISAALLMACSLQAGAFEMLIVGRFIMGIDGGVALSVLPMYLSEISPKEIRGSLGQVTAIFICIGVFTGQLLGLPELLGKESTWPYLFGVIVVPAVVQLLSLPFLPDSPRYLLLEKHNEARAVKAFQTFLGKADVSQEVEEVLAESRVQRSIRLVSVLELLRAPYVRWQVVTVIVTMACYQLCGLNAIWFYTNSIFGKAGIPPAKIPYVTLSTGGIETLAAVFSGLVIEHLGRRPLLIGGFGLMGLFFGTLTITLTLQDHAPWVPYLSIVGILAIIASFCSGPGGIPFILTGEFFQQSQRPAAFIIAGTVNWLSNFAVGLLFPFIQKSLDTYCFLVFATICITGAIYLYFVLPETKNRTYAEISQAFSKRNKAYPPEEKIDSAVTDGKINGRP
The experiment can be described thus: Inhibition of GLUT9 (unknown origin) expressed in HEK293T cells assessed as inhibition of uric acid-induced current at 10 uM by whole cell patch clamp technique. The format is cell-based. Background: Patch clamp records ionic current or voltage across a cell membrane.
For the compound `N#Cc1ccc(Oc2cnccc2SCCCC(=O)O)c2ccccc12`, the inhibition (usually the drop in the measured response relative to a control, in per cent) was 15.2%.
Same read-out and setting: under `COc1cc(C(=O)O)ccc1CSc1ccncc1N(C)c1ccc(C#N)c2ccccc12` stands 23.1%.

For another experiment, the target named is T4, Broad substrate specificity ATP-binding cassette transporter ABCG2 (Homo sapiens, UniProt Q9UNQ0).
T4 sequence (Q9UNQ0 whole entry): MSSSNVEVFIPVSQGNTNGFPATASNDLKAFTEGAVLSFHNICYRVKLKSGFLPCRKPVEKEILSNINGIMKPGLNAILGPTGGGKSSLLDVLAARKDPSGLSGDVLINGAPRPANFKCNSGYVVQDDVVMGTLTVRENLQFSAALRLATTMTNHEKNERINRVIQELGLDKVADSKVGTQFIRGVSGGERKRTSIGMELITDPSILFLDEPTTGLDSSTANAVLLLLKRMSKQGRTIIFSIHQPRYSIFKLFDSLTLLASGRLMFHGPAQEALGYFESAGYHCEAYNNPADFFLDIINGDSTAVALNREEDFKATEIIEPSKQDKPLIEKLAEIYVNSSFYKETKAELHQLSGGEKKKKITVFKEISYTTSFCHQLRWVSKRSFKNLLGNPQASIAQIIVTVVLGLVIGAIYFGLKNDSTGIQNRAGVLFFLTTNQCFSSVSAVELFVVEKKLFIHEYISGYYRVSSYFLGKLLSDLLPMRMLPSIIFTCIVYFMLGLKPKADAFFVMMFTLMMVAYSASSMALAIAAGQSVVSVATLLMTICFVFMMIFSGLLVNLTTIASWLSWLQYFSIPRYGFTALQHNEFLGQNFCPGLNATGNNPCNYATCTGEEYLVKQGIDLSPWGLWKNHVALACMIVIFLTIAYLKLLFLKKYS
The experiment can be described thus: Inhibition of ABCG2 (unknown origin) expressed in HEK293 cells membrane vesicles assessed as inhibition of ATP-induced 14C-uric acid uptake preincubated for 15 mins followed by incubation with ATP and substrate for 5 mins by liquid scintillation counting analysis. The class given is toxicity, cell membranes, Membrane vesicle.
For the compound `N#Cc1ccc(Oc2cnccc2SCCCC(=O)O)c2ccccc12`, the concentration for half-maximal inhibition (IC50) turned out to be 27.9 µM.
The same measure, in the same setting: under `COc1cc(C(=O)O)ccc1CSc1ccncc1N(C)c1ccc(C#N)c2ccccc12` stands 34.8 µM.
